Literature values as cited in patent publication US20030162725A1, “Synergistic pharmaceutical combinations for treating obesity with EGCG” (priority 2002, published 2003).

Test system: mouse

N[C@@H](Cc1c[nH]c2ccc(O)cc12)C(=O)O [5-HTP, 5-hydroxytryptophan]
LD50 i.p. (i.p., species not restated (studies in the rat and mouse)): 1400 mg/kg
LD50 per os (per os in the mouse): 2500 mg/kg
